# Experimental data from article PMC11811690 (Angewandte Chemie (International Ed. in English), 2024).
# Where two headings read alike, the source gives them in different places.
# What was measured:
# Test in all cases: microbe, parasite or virus in culture
# [1] = system: M. tuberculosis H37Rv poly-g-GFP; type: cell-based; details: Mycobacterium tuberculosis, H37RV, 240 h, read-out: IC90 Mtb H37Rv-poly-g-GFP, fluorescence read-out
# C. difficile 630 = type: cell-based, Clostridioides difficile
# [2] = system: M. tuberculosis H37Rv poly-g-GFP; type: cell-based; details: Mycobacterium tuberculosis, 336 h, read-out: MIC Mtb H37Rv-poly-g-GFP, turbidity read-out
# [3] = concentration for 90 % inhibition of fluorescence as proxy for growth inhibition, 10 days, 37 °C
# [4] = Clostridioides difficile, C. difficile 630, anaerobic, overnight, growth suppressed to OD600 < 0.15, read-out: MIC C. difficile
SMILES,"IC90 [1, 3] [mg/L]",MIC (C. difficile 630; [4]) [mg/L],IC90 [1] [mg/L],further results
CC[C@H]1/C=C(\C)[C@@H](O)C/C=C/C=C(\CN2CCN(C)CC2)C(=O)O[C@H]([C@@H](C)O)C/C=C(C)/C=C(\C)[C@@H]1O[C@@H]1OC(C)(C)[C@@H](O)[C@H](OC(=O)c2ccn(C)n2)[C@@H]1O [compound 44],> 64,,,
CC[C@H]1/C=C(\C)[C@@H](O)C/C=C/C=C(\CNc2nc(-c3cccc(O)c3)cs2)C(=O)O[C@H]([C@@H](C)O)C/C=C(C)/C=C(\C)[C@@H]1O[C@@H]1OC(C)(C)[C@@H](OC(=O)C(C)C)[C@H](O)[C@@H]1O [compound 32],4 to 8,8,,
CC[C@H]1/C=C(\C)[C@@H](O)C/C=C/C=C(\CNc2nc(-c3cccc(OS(=O)(=O)Oc4ccccc4)c3)cs2)C(=O)O[C@H]([C@@H](C)O)C/C=C(C)/C=C(\C)[C@@H]1O[C@@H]1OC(C)(C)[C@@H](OC(=O)C(C)C)[C@H](O)[C@@H]1O [compound 38],> 64,> 32,,
CC[C@H]1/C=C(\C)[C@@H](O)C/C=C/C=C(\CNCc2nc3ccccc3s2)C(=O)O[C@H]([C@@H](C)O)C/C=C(C)/C=C(\C)[C@@H]1O[C@@H]1OC(C)(C)[C@@H](OC(=O)C(C)C)[C@H](O)[C@@H]1O [compound 14],,> 32,16,
CC[C@H]1/C=C(\C)[C@@H](O)C/C=C/C=C(\CN2CCCCC2)C(=O)O[C@H]([C@@H](C)O)C/C=C(C)/C=C(\C)[C@@H]1O[C@@H]1OC(C)(C)[C@@H](O)[C@H](OC(=O)c2ccoc2)[C@@H]1O [compound 42],> 64,,,
CC[C@H]1/C=C(\C)[C@@H](O)C/C=C/C=C(\CNc2nc3c(s2)CN(C)CC3)C(=O)O[C@H]([C@@H](C)O)C/C=C(C)/C=C(\C)[C@@H]1O[C@@H]1OC(C)(C)[C@@H](OC(=O)C(C)C)[C@H](O)[C@@H]1O [compound 12],,,32,
CC[C@H]1/C=C(\C)[C@@H](O)C/C=C/C=C(\CNc2nc3ccccc3s2)C(=O)O[C@H]([C@@H](C)O)C/C=C(C)/C=C(\C)[C@@H]1O[C@@H]1OC(C)(C)[C@@H](OC(=O)C(C)C)[C@H](O)[C@@H]1O [compound 9],,2,8,MIC [2]: 4 to 8 mg/L
CC[C@H]1/C=C(\C)[C@@H](O)C/C=C/C=C(\CN(C)Cc2nnc(-c3ccccc3)o2)C(=O)O[C@H]([C@@H](C)O)C/C=C(C)/C=C(\C)[C@@H]1O[C@@H]1OC(C)(C)[C@@H](OC(=O)C(C)C)[C@H](O)[C@@H]1O [compound 7],,16,8,MIC [2]: 8 mg/L
CC[C@H]1/C=C(\C)[C@@H](O)C/C=C/C=C(\CN2CCN(C)CC2)C(=O)O[C@H]([C@@H](C)O)C/C=C(C)/C=C(\C)[C@@H]1O[C@@H]1OC(C)(C)[C@@H](O)[C@H](OC(=O)c2ccnn2C)[C@@H]1O [compound 45],> 64,,,
"CO[C@H]1/C=C/O[C@@]2(C)Oc3c(C)c(O)c4c(O)c(c(/C=N/N5CCN(C)CC5)c(O)c4c3C2=O)NC(=O)/C(C)=C\C=C\[C@H](C)[C@H](O)[C@@H](C)[C@@H](O)[C@@H](C)[C@H](OC(C)=O)[C@@H]1C [Rif, Rifampicin, reference compound]",,,,MIC [2]: < 0.12 mg/L
CC[C@H]1/C=C(\C)[C@@H](O)C/C=C/C=C(\CN2CCN(CCOc3ncccn3)CC2)C(=O)O[C@H]([C@@H](C)O)C/C=C(C)/C=C(\C)[C@@H]1O[C@@H]1OC(C)(C)[C@@H](OC(=O)C(C)C)[C@H](O)[C@@H]1O [compound 4],,,> 64,
CC[C@H]1/C=C(\C)[C@@H](O)C/C=C/C=C(\CNCc2cc(-c3ccccc3)no2)C(=O)O[C@H]([C@@H](C)O)C/C=C(C)/C=C(\C)[C@@H]1O[C@@H]1OC(C)(C)[C@@H](OC(=O)C(C)C)[C@H](O)[C@@H]1O [compound 15],,,16,
CC[C@H]1/C=C(\C)[C@@H](O)C/C=C/C=C(\CNc2nc3c(s2)CCCC3)C(=O)O[C@H]([C@@H](C)O)C/C=C(C)/C=C(\C)[C@@H]1O[C@@H]1OC(C)(C)[C@@H](OC(=O)C(C)C)[C@H](O)[C@@H]1O [compound 11],,8 to 16,16,
CC[C@H]1/C=C(\C)[C@@H](O)C/C=C/C=C(\CNc2cccc(CNC(=O)Cc3nnn[nH]3)c2)C(=O)O[C@H]([C@@H](C)O)C/C=C(C)/C=C(\C)[C@@H]1O[C@@H]1OC(C)(C)[C@@H](OC(=O)C(C)C)[C@H](O)[C@@H]1O [compound 29],64,> 32,,
CC[C@H]1/C=C(\C)[C@@H](O)C/C=C/C=C(\CN2CCN(CCCN(C)C)CC2)C(=O)O[C@H]([C@@H](C)O)C/C=C(C)/C=C(\C)[C@@H]1O[C@@H]1OC(C)(C)[C@@H](O)[C@H](OC(=O)c2ccoc2)[C@@H]1O [compound 43],32 to 64,,,
CC[C@H]1/C=C(\C)[C@@H](O)C/C=C/C=C(\CN2CCN(C)CC2)C(=O)O[C@H]([C@@H](C)O)C/C=C(C)/C=C(\C)[C@@H]1O[C@@H]1OC(C)(C)[C@@H](O)[C@H](OC(=O)c2ccoc2)[C@@H]1O [compound 41],> 64,,,
CC[C@H]1/C=C(\C)[C@@H](O)C/C=C/C=C(\CN2CCN(C)CC2)C(=O)O[C@H]([C@@H](C)O)C/C=C(C)/C=C(\C)[C@@H]1O[C@@H]1OC(C)(C)[C@@H](O)[C@H](OC(=O)c2cnn(C)c2)[C@@H]1O [compound 46],> 64,,,
CC[C@H]1/C=C(\C)[C@@H](O)C/C=C/C=C(\CNc2nc(-c3cccc(OS(=O)(=O)F)c3)cs2)C(=O)O[C@H]([C@@H](C)O)C/C=C(C)/C=C(\C)[C@@H]1O[C@@H]1OC(C)(C)[C@@H](OC(=O)C(C)C)[C@H](O)[C@@H]1O [compound 33],8 to 16,,,"MIC (C. difficile 630; Clostridioides difficile, 630, read-out: MIC C. difficile): > 32 mg/L"
CC[C@H]1/C=C(\C)[C@@H](O)C/C=C/C=C(\CN2CCN(c3ccccc3)CC2)C(=O)O[C@H]([C@@H](C)O)C/C=C(C)/C=C(\C)[C@@H]1O[C@@H]1OC(C)(C)[C@@H](OC(=O)C(C)C)[C@H](O)[C@@H]1O [compound 2],,> 32,16,
CC[C@H]1/C=C(\C)[C@@H](O)C/C=C/C=C(\CNc2nc(-c3cccc(OS(=O)(=O)N(C)C)c3)cs2)C(=O)O[C@H]([C@@H](C)O)C/C=C(C)/C=C(\C)[C@@H]1O[C@@H]1OC(C)(C)[C@@H](OC(=O)C(C)C)[C@H](O)[C@@H]1O [compound 35],8,> 32,,
CC[C@H]1/C=C(\C)[C@@H](O)C/C=C/C=C(\CNc2cccc(CNC(=O)CCC(=O)O)c2)C(=O)O[C@H]([C@@H](C)O)C/C=C(C)/C=C(\C)[C@@H]1O[C@@H]1OC(C)(C)[C@@H](OC(=O)C(C)C)[C@H](O)[C@@H]1O [compound 28],> 64,32,,
CC[C@H]1/C=C(\C)[C@@H](O)C/C=C/C=C(\CNCc2nnc(-c3cc(Cl)cc(Cl)c3O)o2)C(=O)O[C@H]([C@@H](C)O)C/C=C(C)/C=C(\C)[C@@H]1O[C@@H]1OC(C)(C)[C@@H](OC(=O)C(C)C)[C@H](O)[C@@H]1O [compound 17],,2,32,
CC[C@H]1/C=C(\C)[C@@H](O)C/C=C/C=C(\CNc2nc(-c3cccc(OS(=O)(=O)NC)c3)cs2)C(=O)O[C@H]([C@@H](C)O)C/C=C(C)/C=C(\C)[C@@H]1O[C@@H]1OC(C)(C)[C@@H](OC(=O)C(C)C)[C@H](O)[C@@H]1O [compound 34],8,1,,
CC[C@H]1/C=C(\C)[C@@H](O)C/C=C/C=C(\CNc2nc(-c3cccc(OS(=O)(=O)NCCOC)c3)cs2)C(=O)O[C@H]([C@@H](C)O)C/C=C(C)/C=C(\C)[C@@H]1O[C@@H]1OC(C)(C)[C@@H](OC(=O)C(C)C)[C@H](O)[C@@H]1O [compound 37],8,2,,
CC[C@H]1/C=C(\C)[C@@H](O)C/C=C/C=C(\CN2CCN(Cc3ccc(F)cc3)CC2)C(=O)O[C@H]([C@@H](C)O)C/C=C(C)/C=C(\C)[C@@H]1O[C@@H]1OC(C)(C)[C@@H](OC(=O)C(C)C)[C@H](O)[C@@H]1O [compound 6],,16,16,
CC[C@H]1/C=C(\C)[C@@H](O)C/C=C/C=C(\CNc2cccc(CNC(=O)c3ccc(O)c(O)c3Cl)c2)C(=O)O[C@H]([C@@H](C)O)C/C=C(C)/C=C(\C)[C@@H]1O[C@@H]1OC(C)(C)[C@@H](OC(=O)C(C)C)[C@H](O)[C@@H]1O [compound 31],> 64,32,,
CC[C@H]1/C=C(\C)[C@@H](O)C/C=C/C=C(\CN2CCN(c3ccncc3)CC2)C(=O)O[C@H]([C@@H](C)O)C/C=C(C)/C=C(\C)[C@@H]1O[C@@H]1OC(C)(C)[C@@H](OC(=O)C(C)C)[C@H](O)[C@@H]1O [compound 3],,,16,
CC[C@H]1/C=C(\C)[C@@H](O)C/C=C/C=C(\CNCc2nnc(C)o2)C(=O)O[C@H]([C@@H](C)O)C/C=C(C)/C=C(\C)[C@@H]1O[C@@H]1OC(C)(C)[C@@H](OC(=O)C(C)C)[C@H](O)[C@@H]1O [compound 19],,32,16,
CC[C@H]1/C=C(\C)[C@@H](O)C/C=C/C=C(\CNc2nc(-c3cccc(OS(=O)(=O)N4CCCC4)c3)cs2)C(=O)O[C@H]([C@@H](C)O)C/C=C(C)/C=C(\C)[C@@H]1O[C@@H]1OC(C)(C)[C@@H](OC(=O)C(C)C)[C@H](O)[C@@H]1O [compound 36],8,> 32,,
